This is an account of results in patent publication US20250346600A1, “TRICYCLIC DERIVATIVES AND RELATED USES” (MOMA Therapeutics, Inc., priority 2023, published 2025).

Where two headings read alike, the source gives them in different places. A value given as a limit tells only on which side of the number the result lay.

Assay [1] concerns the target T1, Full length WRN protein (aa 2-1432) (Homo sapiens (Human), UniProt Q14191). The experiment in a line: WRN ATPase ADP-Glo biochemical assay, Assay Format A (10 μM ATP). The conditions noted are these: 0.25 nM WRN, 100 nM C6.18 ssDNA, 30 min preincubation, read-out: ATPase ADPGlo AC50 (uM)- Assay Format A. The method, boiled down: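 ADP-Glo luminescence measured hydrolysis of ATP by purified, baculovirus-expressed N-terminally tagged full-length WRN. Enzyme (0.5 nM) was preincubated 30 min with compound, then 200 nM ssDNA C6.18 plus 20 μM ATP were added (pre-mix levels) for 30 min at RT. IC50s come from four-parameter fits, geometric mean of at least two trials.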

A further assay concerns HT29 cells. The assay can be described thus: HT29 (MSS) 7 day viability, CellTiter Glo. In kind it is cell-based. The conditions noted are these: 7 days, read-out: HT29 (MSS) Viability 7 Day CTGAbs AC50. The method, boiled down:
(§1)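 For each line, compound dilution series (3-fold, 10 points) met a defined seeding density—HCT116 50, HT29 500 cells/well—followed by 7 days at 37 °C. Luminescent ATP signal, background-corrected with no-cell wells, gave four-parameter logistic IC50s.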

Assay [2] concerns the target T1, Full length WRN protein (aa 2-1432). The experiment in a line: WRN ATPase ADP-Glo biochemical assay, Assay Format B (100 μM ATP). The conditions noted are these: 0.25 nM WRN, 100 nM C6.18 ssDNA, 60 min preincubation, read-out: ATPase ADPGlo AC50 (uM)- Assay Format B.
The subject of another assay is HCT116 cells. The experiment in a line: HCT116 (MSI) 7 day viability, CellTiter Glo. In kind it is cell-based. The conditions noted are these: 7 days, read-out: HCT116 (MSI) Viability 7 Day Abs AC50. The method, boiled down:
as §1

T1 sequence (Q14191 2-1432): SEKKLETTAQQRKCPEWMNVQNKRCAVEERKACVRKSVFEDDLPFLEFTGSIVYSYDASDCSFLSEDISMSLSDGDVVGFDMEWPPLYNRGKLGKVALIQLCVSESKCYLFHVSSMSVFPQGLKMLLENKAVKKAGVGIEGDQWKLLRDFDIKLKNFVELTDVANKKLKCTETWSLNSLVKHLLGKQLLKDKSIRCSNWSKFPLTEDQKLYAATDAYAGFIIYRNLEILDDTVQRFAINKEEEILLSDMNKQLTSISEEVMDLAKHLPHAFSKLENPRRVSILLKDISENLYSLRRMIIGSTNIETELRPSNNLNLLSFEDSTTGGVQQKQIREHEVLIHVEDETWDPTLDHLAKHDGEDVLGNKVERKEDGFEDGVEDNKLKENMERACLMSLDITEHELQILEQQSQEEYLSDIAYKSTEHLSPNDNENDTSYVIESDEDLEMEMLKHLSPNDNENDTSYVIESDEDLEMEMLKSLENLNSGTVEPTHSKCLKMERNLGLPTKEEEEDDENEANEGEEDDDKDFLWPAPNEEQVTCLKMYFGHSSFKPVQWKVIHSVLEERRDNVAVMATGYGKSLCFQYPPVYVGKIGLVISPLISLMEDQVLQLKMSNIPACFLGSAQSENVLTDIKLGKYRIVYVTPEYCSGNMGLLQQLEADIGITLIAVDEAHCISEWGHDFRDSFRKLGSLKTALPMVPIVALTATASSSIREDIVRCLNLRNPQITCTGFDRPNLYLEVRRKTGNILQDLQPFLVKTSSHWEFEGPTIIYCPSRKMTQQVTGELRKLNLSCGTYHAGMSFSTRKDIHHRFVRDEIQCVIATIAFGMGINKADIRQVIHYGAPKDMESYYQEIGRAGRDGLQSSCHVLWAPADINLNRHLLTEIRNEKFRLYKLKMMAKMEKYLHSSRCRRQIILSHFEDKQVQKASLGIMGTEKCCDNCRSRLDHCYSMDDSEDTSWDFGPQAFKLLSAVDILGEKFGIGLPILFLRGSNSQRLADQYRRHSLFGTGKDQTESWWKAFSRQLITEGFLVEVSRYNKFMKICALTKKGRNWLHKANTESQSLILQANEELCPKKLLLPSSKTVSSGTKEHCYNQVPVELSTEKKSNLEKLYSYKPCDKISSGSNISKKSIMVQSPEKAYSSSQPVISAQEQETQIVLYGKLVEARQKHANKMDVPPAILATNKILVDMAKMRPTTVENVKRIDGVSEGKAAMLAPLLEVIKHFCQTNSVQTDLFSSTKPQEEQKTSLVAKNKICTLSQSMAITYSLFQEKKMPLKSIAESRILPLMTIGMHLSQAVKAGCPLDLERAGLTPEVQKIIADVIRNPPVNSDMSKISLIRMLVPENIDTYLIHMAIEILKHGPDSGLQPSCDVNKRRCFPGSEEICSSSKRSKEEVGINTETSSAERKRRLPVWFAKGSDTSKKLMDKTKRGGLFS

Consider `C=CC(=O)N1CCc2nn(-c3ccc(C4CCC4)cc3O)c3c2C(C1)N(C(=O)c1cnc(C(F)(F)F)c(O)c1)CC3` (stereo not shown) [Compound 25, 1-(2-(4-cyclobutyl-2-hydroxyphenyl)-5-(5-hydroxy-6-(trifluoromethyl)nicotinoyl)-2,3,4,5,5a,6,8,9-octahydro-7H-1,2,5,7-tetraazabenzo[cd]azulen-7-yl)prop-2-en-1-one], for which the AC50 in assay [1] was less than 0.0015 µM; with HT29 cells (Homo sapiens, HT-29, 168 h), more than 3 µM; in assay [2] it was 0.005 to 0.015 µM; with HCT116 cells (Homo sapiens, HCT-116, 168 h) it was 0.001 to 0.1 µM.
Taken in the same sequence, the figures for `C=CC(=O)N1CCc2nn(-c3ccc(C4CCC4)cc3)c3c2C(C1)N(C(=O)c1cnc(C(F)(F)F)c(O)c1)CC3` (stereo not shown) [Compound 26, 1-(2-(4-cyclobutylphenyl)-5-(5-hydroxy-6-(trifluoromethyl)nicotinoyl)-2,3,4,5,5a,6,8,9-octahydro-7H-1,2,5,7-tetraazabenzo[cd]azulen-7-yl)prop-2-en-1-one] were less than 0.0015 µM, more than 3 µM, 0.005 to 0.015 µM and 0.001 to 0.1 µM.
The like results for `C=CC(=O)N1CC(OC)c2nn(-c3ccc(C4CCC4)cc3)c3c2C(C1)N(C(=O)c1ccc(Br)c2[nH]cnc12)CC3` (stereo not shown) [Compound 27, 1-(5-(7-bromo-1H-benzo[d]imidazole-4-carbonyl)-2-(4-cyclobutylphenyl)-9-methoxy-2,3,4,5,5a,6,8,9-octahydro-7H-1,2,5,7-tetraazabenzo[cd]azulen-7-yl)prop-2-en-1-one] were, in that order, less than 0.0015 µM, more than 3 µM, 0.0015 to 0.005 µM and 0.001 to 0.1 µM.
The like results for `C=CC(=O)N1CC(F)c2nn(-c3ccc(C4CCC4)cc3)c3c2C(C1)N(C(=O)c1ccc(Br)c2[nH]cnc12)CC3` (stereo not shown) [Compound 28, 1-(5-(7-bromo-1H-benzo[d]imidazole-4-carbonyl)-2-(4-cyclobutylphenyl)-9-fluoro-2,3,4,5,5a,6,8,9-octahydro-7H-1,2,5,7-tetraazabenzo[cd]azulen-7-yl)prop-2-en-1-one] were, in that order, less than 0.0015 µM, 1 to 3 µM, 0.0015 to 0.005 µM and 0.001 to 0.1 µM.
For the compound `C=CC(=O)N1CCc2nn(-c3ccc(C45CC(C4)C5)nc3)c3c2C(C1)N(C(=O)c1ccc(Br)c2[nH]cnc12)CC3` (stereo not shown) [Compound 29, 1-(2-(6-(bicyclo[1.1.1]pentan-1-yl)pyridin-3-yl)-5-(7-bromo-1H-benzo[d]imidazole-4-carbonyl)-2,3,4,5,5a,6,8,9-octahydro-7H-1,2,5,7-tetraazabenzo[cd]azulen-7-yl)prop-2-en-1-one], the AC50 is 0.015 to 0.055 µM in assay [1]; more than 3 µM with HT29 cells (Homo sapiens, HT-29, 168 h); more than 0.055 µM in assay [2]; 0.1 to 0.25 µM in the assay with HCT116 cells (Homo sapiens, HCT-116, 168 h).
Taken in the same sequence, the figures for `C=CC(=O)N1CCc2nn(-c3ccc(C45CC(C4)C5)cc3F)c3c2C(C1)N(C(=O)c1ccc(Br)c2[nH]cnc12)CC3` (stereo not shown) [Compound 30, 1-(2-(4-(bicyclo[1.1.1]pentan-1-yl)-2-fluorophenyl)-5-(7-bromo-1H-benzo[d]imidazole-4-carbonyl)-2,3,4,5,5a,6,8,9-octahydro-7H-1,2,5,7-tetraazabenzo[cd]azulen-7-yl)prop-2-en-1-one] were less than 0.0015 µM, more than 3 µM, 0.005 to 0.015 µM and 0.001 to 0.1 µM.
For the compound `C=CC(=O)N1CC(C)c2nn(-c3ccc(C(C)C)cc3O)c3c2C(C1)N(C(=O)c1ccc(Br)c2[nH]cnc12)CC3` (stereo not shown) [Compound 31, 1-(5-(7-bromo-1H-benzo[d]imidazole-4-carbonyl)-2-(2-hydroxy-4-isopropylphenyl)-9-methyl-2,3,4,5,5a,6,8,9-octahydro-7H-1,2,5,7-tetraazabenzo[cd]azulen-7-yl)prop-2-en-1-one], the AC50 was 0.0015 to 0.005 µM in assay [1]; more than 3 µM in the assay with HT29 cells (Homo sapiens, HT-29, 168 h); 0.015 to 0.055 µM in assay [2]; 0.25 to 0.5 µM with HCT116 cells.
As to `C=CC(=O)N1CC(C)c2nn(-c3ccc(C(C)C)cc3O)c3c2C(C1)N(C(=O)c1ccc(Br)c2[nH]cnc12)CC3` (stereo not shown) [Compound 32, 1-(5-(7-bromo-1H-benzo[d]imidazole-4-carbonyl)-2-(2-hydroxy-4-isopropylphenyl)-9-methyl-2,3,4,5,5a,6,8,9-octahydro-7H-1,2,5,7-tetraazabenzo[cd]azulen-7-yl)prop-2-en-1-one], the AC50 in assay [1] is less than 0.0015 µM; with HT29 cells it was more than 3 µM; in assay [2] it was 0.005 to 0.015 µM; in the assay with HCT116 cells it was 0.001 to 0.1 µM.
On to `C=CC(=O)N1CC(C)c2nn(-c3ccc(C(C)C)cc3)c3c2C(C1)N(C(=O)c1ccc(Br)c2[nH]cnc12)CC3` (stereo not shown) [Compound 33, 1-(5-(7-bromo-1H-benzo[d]imidazole-4-carbonyl)-2-(4-isopropylphenyl)-9-methyl-2,3,4,5,5a,6,8,9-octahydro-7H-1,2,5,7-tetraazabenzo[cd]azulen-7-yl)prop-2-en-1-one], for which the AC50 in assay [1] was 0.0015 to 0.005 µM; with HT29 cells (Homo sapiens, HT-29, 168 h), more than 3 µM; in assay [2], 0.005 to 0.015 µM; in the assay with HCT116 cells, 0.001 to 0.1 µM.
Take `C=CC(=O)N1CC(C)c2nn(-c3ccc(C(C)C)cc3)c3c2C(C1)N(C(=O)c1ccc(Br)c2[nH]cnc12)CC3` (stereo not shown) [Compound 34, 1-(5-(7-bromo-1H-benzo[d]imidazole-4-carbonyl)-2-(4-isopropylphenyl)-9-methyl-2,3,4,5,5a,6,8,9-octahydro-7H-1,2,5,7-tetraazabenzo[cd]azulen-7-yl)prop-2-en-1-one]: the AC50 was 0.0015 to 0.005 µM in assay [1], more than 3 µM in the assay with HT29 cells, 0.005 to 0.015 µM in assay [2] and 0.25 to 0.5 µM in the assay on HCT116 cells.
For the compound `C=CC(=O)N1CCc2nc(-c3ccc(C(C)C)cc3)n3c2C(C1)N(C(=O)c1ccc(Br)c2[nH]cnc12)CC3` (stereo not shown) [Compound 38, 1-(5-(7-bromo-1H-benzo[d]imidazole-4-carbonyl)-2-(4-isopropylphenyl)-4,5,5a,6,8,9-hexahydro-1,2a,5,7-tetraazabenzo[cd]azulen-7(3H)-yl)prop-2-en-1-one], the AC50 in assay [1] was less than 0.0015 µM; in the assay on HT29 cells (Homo sapiens, HT-29, 168 h) it was more than 3 µM; in assay [2], 0.005 to 0.015 µM; in the assay with HCT116 cells (Homo sapiens, HCT-116, 168 h), 0.001 to 0.1 µM.
For `C=CC(=O)N1CCOc2nn(-c3ccc(C4CCC4)cc3O)c3c2C(C1)N(C(=O)c1ccc(Br)c2[nH]cnc12)CC3` (stereo not shown) [Compound 39, 1-(5-(7-bromo-1H-benzo[d]imidazole-4-carbonyl)-2-(4-cyclobutyl-2-hydroxyphenyl)-2,3,4,5,5a,6,8,9-octahydro-7H-10-oxa-1,2,5,7-tetraazacycloocta[cd]inden-7-yl)prop-2-en-1-one], the AC50 is 0.0015 to 0.005 µM in assay [1]; more than 3 µM in the assay with HT29 cells (Homo sapiens, HT-29, 168 h); 0.015 to 0.055 µM in assay [2]; 0.001 to 0.1 µM with HCT116 cells (Homo sapiens, HCT-116, 168 h).
For the compound `C=CC(=O)N1CCOc2nn(-c3ccc(C4CCC4)cc3O)c3c2C(C1)N(C(=O)c1ccc2c(Br)n[nH]c2c1)CC3` (stereo not shown) [Compound 40, 1-(5-(3-bromo-1H-indazole-6-carbonyl)-2-(4-cyclobutyl-2-hydroxyphenyl)-2,3,4,5,5a,6,8,9-octahydro-7H-10-oxa-1,2,5,7-tetraazacycloocta[cd]inden-7-yl)prop-2-en-1-one], the AC50 in assay [1] was less than 0.0015 µM; with HT29 cells (Homo sapiens, HT-29, 168 h), more than 3 µM; in assay [2], 0.015 to 0.055 µM; in the assay with HCT116 cells (Homo sapiens, HCT-116, 168 h), 0.001 to 0.1 µM.
Taken in the same sequence, the figures for `C=CC(=O)N1CCOc2nn(-c3ccc(C4CCC4)cc3)c3c2C(C1)N(C(=O)c1ccc(Br)c2[nH]cnc12)CC3` (stereo not shown) [Compound 41, 1-(5-(7-bromo-1H-benzo[d]imidazole-4-carbonyl)-2-(4-cyclobutylphenyl)-2,3,4,5,5a,6,8,9-octahydro-7H-10-oxa-1,2,5,7-tetraazacycloocta[cd]inden-7-yl)prop-2-en-1-one] were 0.0015 to 0.005 µM, more than 3 µM, 0.015 to 0.055 µM and 0.001 to 0.1 µM.
Taken in the same sequence, the figures for `C=CC(=O)N1CCOc2nn(-c3ccc(C4CCC4)cc3)c3c2C(C1)N(C(=O)c1ccc(Br)c2[nH]ncc12)CC3` (stereo not shown) [Compound 42, 1-(5-(7-bromo-1H-indazole-4-carbonyl)-2-(4-cyclobutylphenyl)-2,3,4,5,5a,6,8,9-octahydro-7H-10-oxa-1,2,5,7-tetraazacycloocta[cd]inden-7-yl)prop-2-en-1-one] were less than 0.0015 µM, more than 3 µM, 0.005 to 0.015 µM and 0.001 to 0.1 µM.
The like results for `C=CC(=O)N1CCOc2nn(-c3ccc(C45CC(C4)C5)cc3)c3c2C(C1)N(C(=O)c1ccc(Br)c2[nH]cnc12)CC3` (stereo not shown) [Compound 43, 1-(2-(4-(bicyclo[1.1.1]pentan-1-yl)phenyl)-5-(7-bromo-1H-benzo[d]imidazole-4-carbonyl)-2,3,4,5,5a,6,8,9-octahydro-7H-10-oxa-1,2,5,7-tetraazacycloocta[cd]inden-7-yl)prop-2-en-1-one] were, in that order, less than 0.0015 µM, more than 3 µM, 0.005 to 0.015 µM and 0.001 to 0.1 µM.
